Test results: patent US8249697B2, “Cardiac output monitor with compensation for tissue perfusion” (Alfred E. Mann Institute for Biomedical Engineering at the …, priority 2008, dated 2012)

Tests used:
[1] = disappearance of ICG from blood after high dose intravenous injection (calibration sequence); assay type: in vivo, New Zealand White rabbits; settings: rabbit, 1 mg ICG intravenously, metabolized by the liver
Description: Experiments have been performed in New Zealand White rabbits (2.8-3.5 Kg) anesthetized with halothane and artificially ventilated with an oxygen-enriched gas mixture (FiO2˜0.4) to achieve a SaO2 above 99% and an end-tidal CO2 between 28 and 32 mm Hg (FIG. 4). The left femoral artery was cannulated for measurement of the arterial blood pressure throughout the procedure. A small catheter was positioned in the left brachial vein to inject the indicator, ICG. Body temperature was maintained with a heat lamp.
Calibration of the transcutaneous fluorescence intensity measured at the level of the animals' ear as a function of ICG concentration in blood was performed as follows. […]
As the liver metabolizes ICG, the blood ICG concentration decreases back to 0 in about 20 minutes. […] The fluorescence intensity of the blood in the cuvette was converted to a measurement of concentration using the known standard curve of fluorescence intensity versus ICG concentration established for the cuvette. ICG fluorescence was measured at the level of the ear at the exact time of the blood sample withdrawal. […]
For the range of concentrations used in these studies, ICG concentration and transcutaneous fluorescence were linearly related. The calibration line passes through the origin of the axes since there is no measured fluorescence when the ICG blood concentration is 0.

[2] = system: blood proteins; settings: stated as typical; cited from earlier work
[3] = metabolites are not fluorescent; cited from earlier work

time for blood ICG concentration to decrease back to 0 [1]: about 20 minutes
Structure (SMILES): CC1(C)C(/C=C/C=C/C=C/C=C2\N(CCCCS(=O)(=O)O)c3ccc4ccccc4c3C2(C)C)=[N+](CCCCS(=O)(=O)[O-])c2ccc3ccccc3c21 [ICG, indocyanine green]
fraction of ICG injected in the bloodstream that binds to blood proteins [2]: more than 95% | stability in aqueous solution [3]: breaks down quickly
